Assay results: US11649238B2, “Substituted pyrazolo[1,5-a]pyrimidines as PI4K inhibitors” (GLAXOSMITHKLINE INTELLECTUAL PROPERTY DEVELOPMENT LIMITED, priority 2018, dated 2023)

target: T1, human PI4KIII-beta 13-828 (D316-330) (Homo sapiens, UniProt Q9UBF8); test: PI4 KB Activity Assay (ADP-GLO Kinase assay); format: biochemical; details: 1 mM ATP, 60 μM phosphatidylinositol, 3 hours at room temperature; read-out: mean pIC50 (converted)
T1 construct: human PI4KIII-beta 13-828 (D316-330)
Description: The in vitro inhibition of human PI4KIII-beta 13-828 (D316-330) activity was determined by using the ADP-GLO Kinase assay kit from Promega. Inhibitors were dissolved in 100% DMSO at a concentration of 1 mM. Dilutions were prepared in 100% DMSO using a 1 in 3 serial step dilution. A 60 nL stamp from an 11-point titration was transferred to a white low volume 384 well Greiner assay plate ensuring a final DMSO concentration of 1% across the plate and a top final concentration of inhibitor of 10 μM. The PI4KIII-beta assay contained 25 mM Hepes pH 7.5 (NaOH), 10 mM MgCl2, 0.5 mM EGTA, 0.1% Triton X-100, 2 mM TCEP, and 0.1 mg/ml BSA, 1 mM ATP, 60 μM phosphatidylinositol, and 1.5 nM human PI4K-beta 13-828 (D316-330) in a total volume of 6 μL. The assay was initiated with the addition of enzyme, covered, and incubated at room temperature for 3 hours. The assays were stopped with the addition of 6 μl ADP-GLO Reagent containing 0.1% CHAPS to deplete the unconsumed ATP. The plates were incubated at room temperature for 60 min and then 12 μl of the Kinase Detection Reagent containing 0.1% CHAPS was added to convert ADP to ATP and introduce luciferase and luciferin. After 40 min incubation at room temperature the luminescent signal was read on a BMG Labtech PHERAstar FS with the following settings; Gain 3600, Focal height 13.7 mm, measurement interval time 1 s, Settling time 0.2 s. The inhibitory effect of the PI4K-beta activity of the compounds was evaluated by the IC50 of the response relative to the high, no compound, and low, no enzyme, controls by fitting to the four parameter dose response question.

T1 sequence (Q9UBF8 1-801 isoform Q9UBF8-2): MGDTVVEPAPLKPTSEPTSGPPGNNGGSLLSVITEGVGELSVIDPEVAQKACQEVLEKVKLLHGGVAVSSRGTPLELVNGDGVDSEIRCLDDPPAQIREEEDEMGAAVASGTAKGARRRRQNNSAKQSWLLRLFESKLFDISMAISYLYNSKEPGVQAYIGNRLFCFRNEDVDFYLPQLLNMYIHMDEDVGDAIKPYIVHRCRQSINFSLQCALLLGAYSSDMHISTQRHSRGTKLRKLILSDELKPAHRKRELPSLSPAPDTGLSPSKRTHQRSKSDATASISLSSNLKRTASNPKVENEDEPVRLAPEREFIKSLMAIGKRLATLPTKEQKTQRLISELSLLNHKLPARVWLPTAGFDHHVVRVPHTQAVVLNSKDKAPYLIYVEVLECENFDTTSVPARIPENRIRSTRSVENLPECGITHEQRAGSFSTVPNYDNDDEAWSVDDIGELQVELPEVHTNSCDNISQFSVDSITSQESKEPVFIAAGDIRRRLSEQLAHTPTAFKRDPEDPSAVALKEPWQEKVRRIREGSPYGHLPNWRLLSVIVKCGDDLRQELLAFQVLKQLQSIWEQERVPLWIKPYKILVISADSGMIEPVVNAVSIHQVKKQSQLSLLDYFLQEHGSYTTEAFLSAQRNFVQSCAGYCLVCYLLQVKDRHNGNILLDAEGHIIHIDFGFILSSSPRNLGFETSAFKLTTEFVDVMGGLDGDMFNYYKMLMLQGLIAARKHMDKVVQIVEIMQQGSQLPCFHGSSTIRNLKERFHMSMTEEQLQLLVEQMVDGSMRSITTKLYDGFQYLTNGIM

IC50, ≤ 3.98 nM:
Cc1ccc(-c2c(C)nn3c(NCc4cccc(-c5nccn5C)c4)cc(C(C)(C)CO)nc23)cc1C(=O)N(C)CCCO [Compound 55, 5-(5-(1-Hydroxy-2-methylpropan-2-yl)-2-methyl-7-((3-(1-methyl-1H-imidazol-2-yl)benzyl)amino)pyrazolo[1,5-a]pyrimidin-3-yl)-N-(3-hydroxypropyl)-N,2-dimethylbenzamide]
CCC(CO)c1cc(NCc2cccc(-c3nccn3C)c2)n2nc(C)c(-c3ccc(C)c(C(=O)N(C)CCCO)c3)c2n1 (stereo not drawn) [Compound 65, 5-(5-(1-Hydroxybutan-2-yl)-2-methyl-7-((3-(1-methyl-1H-imidazol-2-yl)benzyl)amino)pyrazolo[1,5-a]pyrimidin-3-yl)-N-(3-hydroxypropyl)-N,2-dimethylbenzamide]
Cc1nn2c(NCc3cccc(-c4nccn4C)c3)cc(C(C)O)nc2c1-c1ccc(Cl)c(C(=O)N(C)CCCO)c1 (stereo not drawn) [Compound 10]
Cc1nn2c(NCc3cccc(-n4cccn4)c3)cc(C(C)(C)O)nc2c1-c1ccc(Cl)c(C(=O)N(C)CCO)c1 [Compound 48]
COc1ccc(-c2c(C)nn3c(NCc4cccc(-c5nccn5C)c4)cc(C(C)(C)O)nc23)cc1C(=O)N(C)CC(C)O (stereo not drawn) [Compound 82, 5-(5-(2-Hydroxypropan-2-yl)-2-methyl-7-((3-(1-methyl-1H-imidazol-2-yl)benzyl)amino)pyrazolo[1,5-a]pyrimidin-3-yl)-N-(2-hydroxypropyl)-2-methoxy-N-methylbenzamide]
COc1ccc(-c2c(C)nn3c(NCc4cccc(-n5cccn5)c4)cc(C(C)(C)O)nc23)cc1C(=O)N(C)CCO [Compound 46]
COc1ccc(-c2c(C)nn3c(NCc4cccc(-n5cccn5)c4)cc(C(C)(C)O)nc23)cc1C(=O)N1CCC(C)(O)C1 (stereo not drawn) [Compound 51]
COc1ccc(-c2c(C)nn3c(NCc4cccc(-c5nccn5C)c4)cc(C(O)C(C)C)nc23)cc1S(=O)(=O)CCO (stereo not drawn) [Compound 5]
Cc1nn2c(NCc3cccc(-c4nccn4C)c3)cc(C(C)(C)O)nc2c1-c1ccc(Cl)c(C(=O)N(C)CCCO)c1 [Compound 7, 2-Chloro-5-(5-(2-hydroxypropan-2-yl)-2-methyl-7-((3-(1-methyl-1H-imidazol-2-yl)benzyl)amino)pyrazolo[1,5-a]pyrimidin-3-yl)-N-(3-hydroxypropyl)-N-methylbenzamide]
CCC(O)c1cc(NCc2cccc(-c3nccn3C)c2)n2nc(C)c(-c3ccc(C)c(C(=O)N(C)CCCO)c3)c2n1 (single isomer, unassigned) [Compound 69, N-(3-Hydroxypropyl)-5-(5-(1-hydroxypropyl)-2-methyl-7-((3-(1-methyl-1H-imidazol-2-yl)benzyl)amino)pyrazolo[1,5-a]pyrimidin-3-yl)-N,2-dimethylbenzamide]
Cc1ccc(-c2c(C)nn3c(NCc4cccc(-n5cccn5)c4)cc(C(C)(C)O)nc23)cc1C(=O)N(C)CCCO [Compound 34]
COc1ccc(-c2c(C)nn3c(NCc4cccc(-c5nccn5C)c4)cc(C(C)(C)O)nc23)cc1C(=O)N1CCCC1CO (stereo not drawn) [Compound 44]
Cc1ccc(-c2c(C)nn3c(NCc4cccc(-c5nccn5C)c4)cc(C(C)(C)O)nc23)cc1C(=O)N(C)CC(C)O (single isomer, unassigned) [Compound 62, 5-(5-(2-Hydroxypropan-2-yl)-2-methyl-7-((3-(1-methyl-1H-imidazol-2-yl)benzyl)amino)pyrazolo[1,5-a]pyrimidin-3-yl)-N-(2-hydroxypropyl)-N,2-dimethylbenzamide]
COc1ccc(-c2c(C)nn3c(NCc4cccc(-c5nccn5C)c4)cc(C4CCOCC4)nc23)cc1S(=O)(=O)CCO [Compound 64, 2-((2-Methoxy-5-(2-methyl-7-((3-(1-methyl-1H-imidazol-2-yl)benzyl)amino)-5-(tetrahydro-2H-pyran-4-yl)pyrazolo[1,5-a]pyrimidin-3-yl)phenyl)sulfonyl)ethan-1-ol]
COc1ccc(-c2c(C)nn3c(NCc4cccc(-c5nccn5C)c4)cc(C(C)(C)O)nc23)cc1C(=O)N(C)CC(C)O (single isomer, unassigned) [Compound 83, 5-(5-(2-Hydroxypropan-2-yl)-2-methyl-7-((3-(1-methyl-1H-imidazol-2-yl)benzyl)amino)pyrazolo[1,5-a]pyrimidin-3-yl)-N-(2-hydroxypropyl)-2-methoxy-N-methylbenzamide]
COc1ccc(-c2c(C)nn3c(NCc4cccc(-c5nccn5C)c4)cc(C(C)CO)nc23)cc1S(=O)(=O)CCO (stereo not drawn) [Compound 53, 2-(3-(3-((2-Hydroxyethyl)sulfonyl)-4-methoxyphenyl)-2-methyl-7-((3-(1-methyl-1H-imidazol-2-yl)benzyl)amino)pyrazolo[1,5-a]pyrimidin-5-yl)propan-1-ol]
Cc1nn2c(NCc3cccc(-c4nccn4C)c3)cc(C(C)(C)O)nc2c1-c1ccc(Cl)c(C(=O)N2CCC[C@@H]2CO)c1 [Compound 24]
COc1ccc(-c2c(C)nn3c(NCc4cccc(-n5cccn5)c4)cc(C(C)(C)O)nc23)cc1C(=O)N1CC[C@H](O)C1 [Compound 52]
COc1ccc(-c2c(C)nn3c(NCc4cccc(-n5cccn5)c4)cc(C(C)(C)O)nc23)cc1C(=O)N1CCC[C@@H]1CO [Compound 49]
Cc1ccc(-c2c(C)nn3c(NCc4cccc(-c5nccn5C)c4)cc(C(C)(C)O)nc23)cc1C(=O)N(C)CC(C)O (stereo not drawn) [Compound 61]
Cc1nn2c(NCc3cccc(-c4nccn4C)c3)cc(C(C)(C)O)nc2c1-c1ccc(Cl)c(C(=O)N2CC[C@H](O)C2)c1 [Compound 18]
CCC(O)(CC)c1cc(NCc2cccc(-c3nccn3C)c2)n2nc(C)c(-c3ccc(C)c(C(=O)N(C)CCCO)c3)c2n1 [Compound 68, 5-(5-(3-Hydroxypentan-3-yl)-2-methyl-7-((3-(1-methyl-1H-imidazol-2-yl)benzyl)amino)pyrazolo[1,5-a]pyrimidin3-yl)-N-(3-hydroxypropyl)-N,2-dimethylbenzamide]
Cc1ccc(-c2c(C)nn3c(NCc4cccc(-n5cccn5)c4)cc(C(C)(C)O)nc23)cc1C(=O)N(C)CCO [Compound 47]
CCC(O)c1cc(NCc2cccc(-c3nccn3C)c2)n2nc(C)c(-c3ccc(OC)c(S(=O)(=O)CCO)c3)c2n1 (single isomer, unassigned) [Compound 75, 1-(3-(3-((2-Hydroxyethyl)sulfonyl)-4-methoxyphenyl)-2-methyl-7-((3-(1-methyl-1H-imidazol-2-yl)benzyl)amino)pyrazolo[1,5-a]pyrimidin-5-yl)propan-1-ol]
Cc1ccc(-c2c(C)nn3c(NCc4cccc(-c5nccn5C)c4)cc(C(C)(C)O)nc23)cc1C(=O)N1CCC(C)(O)C1 (stereo not drawn) [Compound 31]
COc1ccc(-c2c(C)nn3c(NCc4cccc(-c5nccn5C)c4)cc(C(C)O)nc23)cc1C(=O)N(C)CCCO (stereo not drawn) [Compound 9, 5-(5-(1-Hydroxyethyl)-2-methyl-7-((3-(1-methyl-1H-imidazol-2-yl)benzyl)amino)pyrazolo[1,5-a]pyrimidin-3-yl)-N-(3-hydroxypropyl)-2-methoxy-N-methylbenzamide]
Cc1ccc(-c2c(C)nn3c(NCc4cccc(-n5cccn5)c4)cc(C(C)(C)O)nc23)cc1C(=O)N1CC[C@H](O)C1 [Compound 50]
Cc1ccc(-c2c(C)nn3c(NCc4cccc(-c5nccn5C)c4)cc(C(C)(C)O)nc23)cc1C(=O)N(C)CCO [Compound 43, N-(2-hydroxyethyl)-5-(5-(2-hydroxypropan-2-yl)-2-methyl-7-((3-(1-methyl-1H-imidazol-2-yl)benzyl)amino)pyrazolo[1,5-a]pyrimidin-3-yl)-N,2-dimethylbenzamide]
COc1ccc(-c2c(C)nn3c(NCc4cccc(-c5nccn5C)c4)cc(C(C)(C)O)nc23)cc1C(=O)N(C)[C@@H](C)CO [Compound 20, (S)—N-(1-hydroxypropan-2-yl)-5-(5-(2-hydroxypropan-2-yl)-2-methyl-7-((3-(1-methyl-1H-imidazol-2-yl)benzyl)amino)pyrazolo[1,5-a]pyrimidin-3-yl)-2-methoxy-N-methylbenzamide]
COc1ccc(-c2c(C)nn3c(NCc4cccc(-c5nccn5C)c4)cc(C(C)(C)O)nc23)cc1C(=O)N1CCC[C@@H]1CO [Compound 36, (R)-(2-(hydroxymethyl)pyrrolidin-1-yl)(5-(5-(2-hydroxypropan-2-yl)-2-methyl-7-((3-(1-methyl-1H-imidazol-2-yl)benzyl)amino)pyrazolo[1,5-a]pyrimidin-3-yl)-2-methoxyphenyl)methanone]
